Among the data in US6972296B2, “Carboxylic acid derivatives that inhibit the binding of integrins to their receptors” (Encysive Pharmaceuticals Inc., priority 1999, dated 2005) are IC50 values, retold here.

The experiment addresses T1, α4β1 integrin (Homo sapiens, UniProt P05556+P13612).
T1 construct: endogenous in cells; host or cells: Ramos cells
The experiment can be described thus: Adhesion of calcein-labeled Ramos cells to CS1 (fibronectin) peptide conjugated ovalbumin. Format: cell-based. The following applies: Ramos cell adhesion to CS1 conjugated ovalbumin. A digest of the protocol: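 Calcein AM-labelled Ramos cells (2.5×10^5/well) with compound, up to 100 μM, added to plates coated with CS1 peptide–ovalbumin (0.5 μg/ml) and blocked with 3% BSA. Binding buffer TBS pH 7.5 with 1 mM each MgCl2, CaCl2, MnCl2; 30 min, 37 °C. After washes, adherent cells lysed and read fluorometrically; […].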

Where [1] appears, read: Table 5, dose required to give 50% inhibition.
Setting [2] is: Table 7, dose required to give 50% inhibition.

T1 sequence (P13612 34-1032): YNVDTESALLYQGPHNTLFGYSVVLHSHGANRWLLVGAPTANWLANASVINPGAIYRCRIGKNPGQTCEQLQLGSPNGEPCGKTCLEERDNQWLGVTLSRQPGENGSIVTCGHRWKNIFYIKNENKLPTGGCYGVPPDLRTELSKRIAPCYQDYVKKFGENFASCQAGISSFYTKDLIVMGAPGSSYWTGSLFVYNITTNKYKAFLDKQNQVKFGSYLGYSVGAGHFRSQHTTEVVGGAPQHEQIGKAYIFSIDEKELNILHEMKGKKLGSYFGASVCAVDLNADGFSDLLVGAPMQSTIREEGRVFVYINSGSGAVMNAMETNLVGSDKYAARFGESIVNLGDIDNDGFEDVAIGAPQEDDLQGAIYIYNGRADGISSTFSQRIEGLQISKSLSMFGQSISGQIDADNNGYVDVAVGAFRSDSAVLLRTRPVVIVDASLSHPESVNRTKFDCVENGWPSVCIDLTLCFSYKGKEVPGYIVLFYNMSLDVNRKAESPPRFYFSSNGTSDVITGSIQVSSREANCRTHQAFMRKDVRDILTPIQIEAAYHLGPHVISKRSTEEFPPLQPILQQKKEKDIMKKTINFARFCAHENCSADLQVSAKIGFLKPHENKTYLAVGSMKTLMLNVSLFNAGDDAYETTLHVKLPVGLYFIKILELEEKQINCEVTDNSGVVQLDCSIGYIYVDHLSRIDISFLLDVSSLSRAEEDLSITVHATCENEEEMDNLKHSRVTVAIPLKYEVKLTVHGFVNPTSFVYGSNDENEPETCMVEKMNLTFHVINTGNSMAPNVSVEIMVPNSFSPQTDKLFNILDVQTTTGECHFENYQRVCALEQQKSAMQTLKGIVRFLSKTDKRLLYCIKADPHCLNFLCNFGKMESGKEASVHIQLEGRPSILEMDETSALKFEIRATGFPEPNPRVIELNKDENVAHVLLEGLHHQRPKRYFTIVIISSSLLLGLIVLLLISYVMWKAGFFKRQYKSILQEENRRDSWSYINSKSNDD
T1 sequence (P05556 21-798): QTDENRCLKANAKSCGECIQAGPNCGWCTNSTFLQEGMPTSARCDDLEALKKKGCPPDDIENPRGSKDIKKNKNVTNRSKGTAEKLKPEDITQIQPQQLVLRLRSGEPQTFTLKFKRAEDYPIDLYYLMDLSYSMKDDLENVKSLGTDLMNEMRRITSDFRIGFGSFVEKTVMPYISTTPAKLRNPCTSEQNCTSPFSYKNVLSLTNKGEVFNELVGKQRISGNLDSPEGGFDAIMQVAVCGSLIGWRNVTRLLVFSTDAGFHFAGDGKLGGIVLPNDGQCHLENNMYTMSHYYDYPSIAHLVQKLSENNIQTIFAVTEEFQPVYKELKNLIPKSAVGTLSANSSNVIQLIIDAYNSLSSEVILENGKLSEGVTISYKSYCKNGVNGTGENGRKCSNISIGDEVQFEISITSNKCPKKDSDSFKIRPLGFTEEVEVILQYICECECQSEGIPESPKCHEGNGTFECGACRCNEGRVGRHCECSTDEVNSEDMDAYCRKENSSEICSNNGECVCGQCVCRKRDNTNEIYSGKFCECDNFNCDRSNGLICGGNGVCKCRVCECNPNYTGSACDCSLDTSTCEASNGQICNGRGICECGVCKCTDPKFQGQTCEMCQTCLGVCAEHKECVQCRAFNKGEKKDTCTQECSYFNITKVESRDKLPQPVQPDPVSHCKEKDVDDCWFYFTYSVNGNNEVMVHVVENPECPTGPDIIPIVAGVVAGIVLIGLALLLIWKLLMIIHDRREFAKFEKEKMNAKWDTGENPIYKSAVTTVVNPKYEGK

The term IC50 denotes the midpoint of a concentration-inhibition curve. For `COc1ccc([C@H](CC(=O)O)NC(=O)Nc2c(O)ccn(Cc3ccccc3Cl)c2=O)cc1OC` [(3S)-3-[({[1-(2-chlorobenzyl)-4-hydroxy-2-oxo-1,2-dihydropyridin-3-yl]amino}carbonyl)amino]-3-(3,4-dimethoxyphenyl)propanoic acid], under setting [1], the IC50 is 2 nM.
For the compound `Cc1ccc([C@H](CC(=O)O)NC(=O)Nc2c(O)ccn(Cc3ccccc3Cl)c2=O)cc1C` [(3S)-3-[({[1-(2-chlorobenzyl)-4-hydroxy-2-oxo-1,2-dihydropyridin-3-yl]amino}carbonyl)amino]-3-(3,4-dimethylphenyl)propanoic acid], under setting [1], the IC50 was 5 nM.
As to `CCCOc1ccc([C@H](CC(=O)O)NC(=O)Nc2c(O)ccn(Cc3ccccc3Cl)c2=O)cc1OCCC` [(3S)-3-[({[1-(2-chlorobenzyl)-4-hydroxy-2-oxo-1,2-dihydropyridin-3-yl]amino}carbonyl)amino]-3-(3,4-dipropoxyphenyl)propanoic acid], the IC50 under setting [1] was 3 nM.
On to `COc1cc([C@H](CC(=O)O)NC(=O)Nc2c(O)ccn(Cc3ccccc3Cl)c2=O)cc(OC)c1C` [(3S)-3-[({[1-(2-chlorobenzyl)-4-hydroxy-2-oxo-1,2-dihydropyridin-3-yl]amino}carbonyl)amino]-3-(3,5-dimethoxy-4-methylphenyl)propanoic acid], for which, under setting [1], the IC50 is 3 nM.
On the same count and under the same terms, the same measure for `CCOc1cc([C@H](CC(=O)O)NC(=O)Nc2c(O)ccn(Cc3ccccc3Cl)c2=O)ccc1OC` [(3S)-3-[({[1-(2-chlorobenzyl)-4-hydroxy-2-oxo-1,2-dihydropyridin-3-yl]amino}carbonyl)amino]-3-(3-ethoxy-4-methoxyphenyl)propanoic acid]: 2 nM; for `CCOc1cccc([C@H](CC(=O)O)NC(=O)Nc2c(O)ccn(Cc3ccccc3Cl)c2=O)c1` [(3S)-3-[({[1-(2-chlorobenzyl)-4-hydroxy-2-oxo-1,2-dihydropyridin-3-yl]amino}carbonyl)amino]-3-(3-ethoxyphenyl)propanoic acid]: 3 nM.
For `CC(C)Oc1cccc([C@H](CC(=O)O)NC(=O)Nc2c(O)ccn(Cc3ccccc3Cl)c2=O)c1` [(3S)-3-[({[1-(2-chlorobenzyl)-4-hydroxy-2-oxo-1,2-dihydropyridin-3-yl]amino}carbonyl)amino]-3-(3-isopropoxyphenyl)propanoic acid], where the note is “Table 6, 30 minutes at 37° C.”, the IC50 was 3 nM.
Consider `COc1cc([C@H](CC(=O)O)NC(=O)Nc2c(O)ccn(Cc3ccccc3Cl)c2=O)ccc1C` [(3S)-3-[({[1-(2-chlorobenzyl)-4-hydroxy-2-oxo-1,2-dihydropyridin-3-yl]amino}carbonyl)amino]-3-(3-methoxy-4-methylphenyl)propanoic acid], for which the IC50 under setting [1] is 3 nM.
Same read-out and setting: with `COc1cc([C@H](CC(=O)O)NC(=O)Nc2c(O)ccn(Cc3ccccc3Cl)c2=O)cc2c1OCO2` [(3S)-3-[({[1-(2-chlorobenzyl)-4-hydroxy-2-oxo-1,2-dihydropyridin-3-yl]amino}carbonyl)amino]-3-(7-methoxy-1,3-benzodioxol-5-yl)propanoic acid] the figure was 5 nM; with `COCCOc1cccc([C@H](CC(=O)O)NC(=O)Nc2c(O)ccn(Cc3ccccc3Cl)c2=O)c1` [(3S)-3-[({[1-(2-chlorobenzyl)-4-hydroxy-2-oxo-1,2-dihydropyridin-3-yl]amino}carbonyl)amino]-3-[3-(2-methoxyethoxy)phenyl]propanoic acid], 3 nM.
As for `O=C(O)C[C@H](NC(=O)Nc1c(O)ccn(Cc2ccccc2Cl)c1=O)c1cccc(OC(F)F)c1` [(3S)-3-[({[1-(2-chlorobenzyl)-4-hydroxy-2-oxo-1,2-dihydropyridin-3-yl]amino}carbonyl)amino]-3-[3-(difluoromethoxy)phenyl]propanoic acid], the IC50 under setting [1] was 6 nM.
As to `Cn1ccc2cc([C@H](CC(=O)O)NC(=O)Nc3c(O)c4c(n(Cc5ccccc5Cl)c3=O)CCC4)ccc21` [(3S)-3-[({[1-(2-chlorobenzyl)-4-hydroxy-2-oxo-2,5,6,7-tetrahydro-1H-cyclopenta[b]pyridin-3-yl]amino}carbonyl)amino]-3-(1-methyl-1H-indol-5-yl)propanoic acid], under setting [2], the IC50 was 4 nM.
On the same count and under the same terms, with `Cc1cc(C)cc([C@H](CC(=O)O)NC(=O)Nc2c(O)c3c(n(Cc4ccccc4Cl)c2=O)CCC3)c1` [(3S)-3-[({[1-(2-chlorobenzyl)-4-hydroxy-2-oxo-2,5,6,7-tetrahydro-1H-cyclopenta[b]pyridin-3-yl]amino}carbonyl)amino]-3-(3,5-dimethylphenyl)propanoic acid] the figure was 9 nM.
As for `CC(C)Oc1cccc([C@H](CC(=O)O)NC(=O)Nc2c(O)c3c(n(Cc4ccccc4Cl)c2=O)CCC3)c1` [(3S)-3-[({[1-(2-chlorobenzyl)-4-hydroxy-2-oxo-2,5,6,7-tetrahydro-1H-cyclopenta[b]pyridin-3-yl]amino}carbonyl)amino]-3-(3-isopropoxyphenyl)propanoic acid], the half-inhibitory concentration (IC50) (Table 6, 30 minutes at 37° C.) was 3 nM.
On to `Cc1cccc([C@H](CC(=O)O)NC(=O)Nc2c(O)c3c(n(Cc4ccccc4Cl)c2=O)CCC3)c1` [(3S)-3-[({[1-(2-chlorobenzyl)-4-hydroxy-2-oxo-2,5,6,7-tetrahydro-1H-cyclopenta[b]pyridin-3-yl]amino}carbonyl)amino]-3-(3-methylphenyl)propanoic acid], for which the IC50 under setting [2] was 5 nM.
Still for that read-out and setting: with `CC(C)Oc1cc([C@H](CC(=O)O)NC(=O)Nc2c(O)c3c(n(Cc4ccccc4Cl)c2=O)CCC3)ccc1Cl` [(3S)-3-[({[1-(2-chlorobenzyl)-4-hydroxy-2-oxo-2,5,6,7-tetrahydro-1H-cyclopenta[b]pyridin-3-yl]amino}carbonyl)amino]-3-(4-chloro-3-isopropoxyphenyl)propanoic acid] the figure was 38 nM.
In the case of `Cc1ccc([C@H](CC(=O)O)NC(=O)Nc2c(O)c3c(n(Cc4ccccc4Cl)c2=O)CCC3)cc1` [(3S)-3-[({[1-(2-chlorobenzyl)-4-hydroxy-2-oxo-2,5,6,7-tetrahydro-1H-cyclopenta[b]pyridin-3-yl]amino}carbonyl)amino]-3-(4-methylphenyl)propanoic acid], the IC50 under setting [1] is 3 nM.
For `O=C(O)C[C@H](NC(=O)Nc1c(O)c2c(n(Cc3ccccc3Cl)c1=O)CCC2)c1cccc(OCC2CC2)c1` [(3S)-3-[({[1-(2-chlorobenzyl)-4-hydroxy-2-oxo-2,5,6,7-tetrahydro-1H-cyclopenta[b]pyridin-3-yl]amino}carbonyl)amino]-3-[3-(cyclopropylmethoxy)phenyl]propanoic acid], the IC50 under setting [2] was 9 nM.
Regarding `CCCc1cn(Cc2ccccc2Cl)c(=O)c(NC(=O)N[C@@H](CC(=O)O)c2ccc(OCC)c(OCC)c2)c1O` [(3S)-3-[({[1-(2-chlorobenzyl)-4-hydroxy-2-oxo-5-propyl-1,2-dihydropyridin-3-yl]amino}carbonyl)amino]-3-(3,4-diethoxyphenyl)propanoic acid], the IC50 under setting [1] is 5 nM.
Still for that read-out and setting: the same measure for `CCCc1cn(Cc2ccccc2Cl)c(=O)c(NC(=O)N[C@@H](CC(=O)O)c2cccc(OCC)c2)c1O` [(3S)-3-[({[1-(2-chlorobenzyl)-4-hydroxy-2-oxo-5-propyl-1,2-dihydropyridin-3-yl]amino}carbonyl)amino]-3-(3-ethoxyphenyl)propanoic acid]: 3 nM; for `CCCc1cn(Cc2ccccc2Cl)c(=O)c(NC(=O)N[C@@H](CC(=O)O)c2ccc(C)cc2)c1O` [(3S)-3-[({[1-(2-chlorobenzyl)-4-hydroxy-2-oxo-5-propyl-1,2-dihydropyridin-3-yl]amino}carbonyl)amino]-3-(4-methylphenyl)propanoic acid]: 20 nM; for `CCOc1ccc([C@H](CC(=O)O)NC(=O)Nc2c(O)c(C)c(C)n(Cc3ccccc3Cl)c2=O)cc1OCC` [(3S)-3-[({[1-(2-chlorobenzyl)-4-hydroxy-5,6-dimethyl-2-oxo-1,2-dihydropyridin-3-yl]amino}carbonyl)amino]-3-(3,4-diethoxyphenyl)propanoic acid]: 3 nM.
Still for that read-out and setting: with `Cc1ccc([C@H](CC(=O)O)NC(=O)Nc2c(O)c(C)c(C)n(Cc3ccccc3Cl)c2=O)cc1` [(3S)-3-[({[1-(2-chlorobenzyl)-4-hydroxy-5,6-dimethyl-2-oxo-1,2-dihydropyridin-3-yl]amino}carbonyl)amino]-3-(4-methylphenyl)propanoic acid] the figure was 6 nM; with `CCOc1ccc([C@H](CC(=O)O)NC(=O)Nc2c(O)c(C)cn(Cc3ccccc3Cl)c2=O)cc1OCC` [(3S)-3-[({[1-(2-chlorobenzyl)-4-hydroxy-5-methyl-2-oxo-1,2-dihydropyridin-3-yl]amino}carbonyl)amino]-3-(3,4-diethoxyphenyl)propanoic acid], 0.6 nM.
Same read-out and setting: with `CCOc1cccc([C@H](CC(=O)O)NC(=O)Nc2c(O)c(C)cn(Cc3ccccc3Cl)c2=O)c1` [(3S)-3-[({[1-(2-chlorobenzyl)-4-hydroxy-5-methyl-2-oxo-1,2-dihydropyridin-3-yl]amino}carbonyl)amino]-3-(3-ethoxyphenyl)propanoic acid] the figure was 2 nM.
In the case of `COc1ccc([C@H](CC(=O)O)NC(=O)Nc2c(O)c(C)cn(Cc3ccccc3Cl)c2=O)cc1` [(3S)-3-[({[1-(2-chlorobenzyl)-4-hydroxy-5-methyl-2-oxo-1,2-dihydropyridin-3-yl]amino}carbonyl)amino]-3-(4-methoxyphenyl)propanoic acid], for the setting “Table 6, 30 minutes at 37° C.”, the IC50 is 4 nM.
As for `Cc1ccc([C@H](CC(=O)O)NC(=O)Nc2c(O)c(C)cn(Cc3ccccc3Cl)c2=O)cc1` [(3S)-3-[({[1-(2-chlorobenzyl)-4-hydroxy-5-methyl-2-oxo-1,2-dihydropyridin-3-yl]amino}carbonyl)amino]-3-(4-methylphenyl)propanoic acid], the IC50 under setting [1] was 5 nM.
Take `CCN(CC)c1cccc([C@H](CC(=O)O)NC(=O)Nc2c(O)c(C)cn(Cc3ccccc3Cl)c2=O)c1` [(3S)-3-[({[1-(2-chlorobenzyl)-4-hydroxy-5-methyl-2-oxo-1,2-dihydropyridin-3-yl]amino}carbonyl)amino]-3-[3-(diethylamino)phenyl]propanoic acid]: the IC50 under setting [2] is 2 nM.
